{
  "source": "patent US20220306622A1",
  "about": "“SALT AND CRYSTAL FORM OF MTORC1/2 DUAL KINASE ACTIVITY INHIBITOR AND PREPARATION METHOD THEREFOR” (MEDSHINE DISCOVERY INC., priority 2019, published 2022)",
  "key": {"[1]": {"test": "Dynamic vapor sorption (DVS) hygroscopicity study", "format": "physicochemical", "details": "25.6° C. and 80% RH", "method": "Instrument model: SMS DVS Advantage dynamic vapour adsorbent device\nTest conditions: taking the sample (10-15 mg) and putting it into a DVS sample tray for test.\nDetailed DVS parameters are as follows:\nBalance: dm/dt=0.01%/min (minimum: 10 min, maximum: 180 min)\nRH(%) test step range: 0%-90%-0% RH (%)\nThe evaluation of moisture absorption is classed as follows:\nDVS Advantage dynamic vapour adsorbent device"}, "[2]": {"test": "Solid stability test under long-term and accelerated conditions (XRPD)", "format": "physicochemical", "method": "Each sample was put into a double-layer LDPE Bag with each layer buckled and sealed respectively, and then the LDPE Bag was put into an aluminum foil bag and heat sealed. The samples were investigated for XRPD under the conditions of 25° C./60% RH (14 bags), 30° C./65% RH (10 bags) and 40° C./75% RH (10 bags). The test results were compared with the initial test results of 0 days."}, "[3]": {"system": "subcutaneous xenografts of human breast cancer MCF-7 cell", "test": "In vivo pharmacodynamic study, subcutaneous MCF-7 xenograft model", "design": "species or system nude BALB/c mice", "method": "Experimental objective: to study the in vivo efficacy of the compound to be tested on subcutaneous xenografts of human breast cancer MCF-7 in nude BALB/c mice model.\nExperimental animals: female BALB/C nude mice, 6-8 weeks old, weighing 18-22 g; Supplier: Shanghai Xipur Bikai Experimental Animal Co., Ltd.\nHuman breast cancer MCF-7 cells (ECACC, item number: 86012803) were cultured in monolayer in vitro. The culture conditions were EMEM (EBSS)+2 mM […]+1% Non Essential Amino Acids (NEAA) medium plus 10% fetal bovine serum, 100 U/mL penicillin and 100 μg/mL streptomycin, incubated in 5% CO2 incubator at 37° C. Cells were passaged through routine digestion using Trypsin EDTA twice a week. When the cell saturation was 80%-90% and the number reached the requirements, cells were collected, counted and inoculated. […]\nThe experimental index is used for investigating whether tumor growth is inhibited, delayed or cured. The tumor diameter was measured with a vernier caliper twice a week. […]\nThe antitumor effect of the compound was evaluated by TGI (%) or relative tumor proliferation rate T/C(%). […]\nRelative tumor proliferation rate T/C (%): the calculation formula is as follows: T/C %=TRTV/CRTV (TRTV:RTV in treatment group; CRTV:RTV in negative control group). The relative tumor volume (RTV) is calculated according to the results of tumor measurement. […]"}, "[4]": {"target": "T1, mTOR kinase (Homo sapiens, UniProt P42345)", "T1 construct": "purchased discoverx; host or cells: HEK-293", "test": "mTOR kinase inhibitory activity in vitro (discoverx ligand-bead competition binding, qPCR)", "method": "This experiment was tested on discoverx, and all materials and methods were from discoverx.\n1. The labeled mTOR kinase was stably expressed in HEK-293 cells.\n2. Streptavidin magnetic beads were treated with biotinylated small molecule ligands for 30 minutes at room temperature to produce an affinity resin for kinase analysis;\n3. The ligand beads were blocked with excess biotin and washed with buffer (1% bovine serum albumin, 20 […] of dithiothreitol) to wash off unbound ligands and nonspecifically bound ligands;\n5. The test compound was dissolved in dimethyl sulfoxide;\n6. All compounds used for measurement were dissolved in DMSO and then diluted directly to a concentration of 0.9%;\n7. The solution was placed on 384 well polypropylene plates with a volume of 0.02 mL of each well;\n8. The plate was shaked at room temperature for 1 hour;\n9. The plate was washed with buffer (1× PBS, 0.05% Tween 20);\n10. Affinity beads were resuspended in buffer (1× PBS, 0.05% Tween 20, 0.5 μM nonbiotin-affinity ligands) and incubated at room temperature for 30 minutes;\n11. The kinase in eluent was measured for its concentration by qPCR."}, "[5]": {"system": "MCF-7 cells", "test": "Cell proliferation inhibitory activity (Cell-Titer-Glo), MCF-7", "format": "cell-based, human", "method": "(§1) Objective: the inhibitory activity of the compound to be tested was tested on cell proliferation.\n(§2) Experimental principle: Luciferase in Cell-Titer-Glo reagent uses luciferin, oxygen and ATP as reaction substrates to produce oxidized luciferin and release energy in the form of light. Since ATP is required for luciferase reaction, the total amount of light produced by the reaction is directly proportional to the total amount of ATP in response to cell viability.\n(§3) Cell lines: MCF-7 cell line (ATCC-CRL-22), HT-29 cell line (ATCC-HTB-38), OE21 (ECACC-96062201), NCI-N87 cell line (ATCC-CRL-5822)\n(§4) Cell Titer-Glo® Luminescent cell viability test kit (Promega #G7573)\n(§5) According to the schematic diagram of cell seed plate, 384 or 96 well plate was seeded based on 1000 cells per well with a density of 25 μL per well, and the edge well was supplemented with 25 μL PBS, instead of cells.\n(§6) (1) The mother liquor of the compound was 10 mM, and the compound was diluted with DMSO to obtain its initial concentration of 4 mM. The compound was added into the mother liquor plate with 9 μL per well. […]\n(§7) The cell plate was taken from the incubator and balanced at room temperature for 30 minutes. […] After 10 minutes, the plate reading was performed on PerkinElmer envision with setting the […] reading time of 0.2 seconds."}, "[6]": {"system": "N87 cells", "test": "Cell proliferation inhibitory activity (Cell-Titer-Glo), N87", "format": "cell-based", "method": "as §1, §2, §3, §4, §5, §6, §7"}, "[7]": {"test": "Pharmacokinetic evaluation in plasma of mice (IV and PO)", "format": "in vivo, BALB/C female mice", "details": "mouse", "method": "The tested compound was mixed with 5% DMSO/95% 10% polyoxyethylene castor oil (Cremophor EL) followed by vortex and ultrasonic treatment to prepare 1 mg/mL approximate clear solution, which was filtered by microporous membrane before used. BALB/C female mice of 18 to 20 g were injected with the compound solution intravenously at a dose of 1 or 2 mg/kg. The tested compound was mixed with 1% Tween […], 90% aqueous solution followed by vortex and ultrasonic treatment to prepare 1 mg/mL approximate clear solution, which was filtered by microporous membrane before used. BALB/C female mice of 18 to 20 g were given the candidate compound solution orally at a dose of 2 or 10 mg/kg. Whole blood was collected for a certain time to prepare plasma. The medicament was analyzed for its concentration by LC-MS/MS, and the pharmacokinetic parameters were calculated by Phoenix winnonlin software (pharsight company)."}},
  "note": "“Also recorded” adds a separate entry of the source.",
  "data": [
    {"smiles": "C[C@H]1COCCN1c1nc(N2CCOC3(CC3)C2)nc2nc(-c3cccc(C(N)=O)c3)ccc12", "values": [
      {"measurement": "hygroscopicity (classification)", "setting": "[1]", "result": "without hygroscopicity"},
      {"measurement": "ΔW % (hygroscopic weight gain)", "setting": "[1]", "result": "< 0.2", "unit": "%"},
      {"measurement": "Crystal form (XRPD)", "setting": "[2]; 25° C./60% RH, 3 months", "result": "Crystal form A"},
      {"measurement": "Crystal form (XRPD)", "setting": "[2]; 25° C./60% RH, 6 months", "result": "Crystal form A"},
      {"measurement": "Crystal form (XRPD)", "setting": "[2]; 40° C./75% RH, 3 months", "result": "Crystal form A"},
      {"measurement": "Crystal form (XRPD)", "setting": "[2]; 40° C./75% RH, 6 months", "result": "Crystal form A"},
      {"measurement": "Crystal form (XRPD)", "setting": "[2]; Day 0 (initial)", "result": "Crystal form A"},
      {"measurement": "solid stability (in words)", "setting": "[2]; high temperature, high humidity and strong light", "result": "good stability"}
    ]},
    {"smiles": "CNC(=O)c1cccc(-c2ccc3c(N4CCOC[C@@H]4C)nc(N4CCOC[C@@H]4C)nc3n2)c1", "note": "[AZD2014, reference compound]", "values": [
      {"measurement": "RTV (day 27)", "setting": "[3]; 15 mg/kg", "result": "0.85 ± 0.26"}
    ]},
    {"smiles": "C[C@H]1COCCN1c1nc(N2CCOC3(CC3)C2)nc2nc(-c3cccc(C(N)=O)c3)ccc12", "note": "[Compound of formula (I)]", "values": [
      {"measurement": "mTOR kinase inhibitory activity (in words)", "setting": "[4]", "result": "significant or even unexpected mTOR kinase inhibitory activity, which is better than the current clinical compound AZD2014"},
      {"measurement": "inhibitory activity on proliferation of MCF-7 cells (in words)", "setting": "[5]", "result": "obvious inhibitory activity"},
      {"measurement": "inhibitory activity on proliferation of N87 cells (in words)", "setting": "[6]", "result": "obvious inhibitory activity"},
      {"measurement": "bioavailability", "setting": "[7]; female, BALB/C, plasma, 10 mg/kg, oral administration", "result": "~100", "unit": "%"},
      {"measurement": "pharmacokinetic properties compared with the reference compound (in words)", "setting": "[7]", "result": "the same or even better pharmacokinetic properties as the reference compound"},
      {"measurement": "efficacy in MCF-7 Xenograft tumor model compared with AZD2014 (in words)", "setting": "[3]; mouse, in vivo", "result": "equivalent to that of AZD2014; also recorded: comparable to AZD2014"}
    ]}
  ]
}
